The source of these data is patent US8354441B2, “Oxazoline derivatives” (Hoffmann-La Roche Inc., priority 2009, dated 2013).

Structures are written as SMILES.

For one assay, the target named is T1, mouse TAAR1 (Mus musculus, UniProt Q923Y8).
T1 construct: expressed in transfected cells; host or cells: HEK293 (ATCC # CRL-1573), stably transfected with pIRESneo2 expression plasmid
Briefly: TAAR1 radioligand binding with [3H]-rac-2-(1,2,3,4-tetrahydro-1-naphthyl)-2-imidazoline, membranes of stably transfected HEK293 cells. The conditions noted are these: first value of the cell, read-out: Ki (μM) mouse/rat: mouse. In short, it runs like this: (§1)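 Competition binding: competitors spanning 10 pM–30 μM displace 60 nM [3H]-rac-2-(1,2,3,4-tetrahydro-1-naphthyl)-2-imidazoline from stably transfected HEK293 membranes (mouse or rat receptor), 30 min, 4 °C, pH 7.0 buffer with Mg2+/Ca2+. Bound label counted after GF/C filtration; 10 μM unlabelled ligand defines non-specific binding.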

The next assay addresses T2, rat TAAR1 (Rattus norvegicus, UniProt Q923Y9).
T2 construct: expressed in transfected cells; host or cells: HEK293 (ATCC # CRL-1573), stably transfected with pIRESneo2 expression plasmid
Described as above. Particulars: second value of the cell, read-out: Ki (μM) mouse/rat: rat. In short, it runs like this:
as §1

T2 sequence (Q923Y9 whole entry): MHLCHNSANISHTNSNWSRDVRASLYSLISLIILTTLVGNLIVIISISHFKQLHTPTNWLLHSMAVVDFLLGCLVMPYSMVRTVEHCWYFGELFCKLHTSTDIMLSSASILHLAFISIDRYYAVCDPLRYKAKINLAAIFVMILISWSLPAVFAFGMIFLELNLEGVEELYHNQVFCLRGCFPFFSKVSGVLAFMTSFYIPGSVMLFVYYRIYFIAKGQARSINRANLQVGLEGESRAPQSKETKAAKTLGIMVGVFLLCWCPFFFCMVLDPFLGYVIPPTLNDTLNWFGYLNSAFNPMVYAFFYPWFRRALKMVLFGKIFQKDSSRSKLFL
T1 sequence (Q923Y8 whole entry): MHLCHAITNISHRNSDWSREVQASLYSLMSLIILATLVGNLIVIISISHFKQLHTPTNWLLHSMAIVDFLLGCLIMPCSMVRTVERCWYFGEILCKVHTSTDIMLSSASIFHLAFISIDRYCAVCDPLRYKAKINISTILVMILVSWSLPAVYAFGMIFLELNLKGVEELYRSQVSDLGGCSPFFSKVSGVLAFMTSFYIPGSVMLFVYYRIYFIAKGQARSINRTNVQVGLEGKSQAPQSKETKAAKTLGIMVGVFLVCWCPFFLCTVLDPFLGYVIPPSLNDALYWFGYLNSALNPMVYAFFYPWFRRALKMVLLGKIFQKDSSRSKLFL

Consider `NC1=N[C@@H](CCc2ccc(NC(=O)c3cnc(Cl)cn3)cc2)CO1` [Example 126, (S)-N-(4-(2-(2-Amino-4,5-dihydrooxazol-4-yl)ethyl)phenyl)-5-chloropyrazine-2-carboxamide], for which the Ki on mouse TAAR1 was 0.0007 µM; on rat TAAR1, 0.002 µM.
As for `COc1cnc(C(=O)Nc2ccc(CC[C@H]3COC(N)=N3)cc2)cn1` [Example 127, (S)-N-(4-(2-(2-Amino-4,5-dihydrooxazol-4-yl)ethyl)phenyl)-5-methoxypyrazine-2-carboxamide], the figures for the Ki at mouse TAAR1 and at rat TAAR1 were 0.0063 µM and 0.0022 µM, respectively.
With `COc1cncc(C(=O)Nc2ccc(CC[C@H]3COC(N)=N3)cc2)n1` [Example 128, (S)-N-(4-(2-(2-Amino-4,5-dihydrooxazol-4-yl)ethyl)phenyl)-6-methoxypyrazine-2-carboxamide], the Ki at mouse TAAR1 turned out to be 0.0079 µM; at rat TAAR1, 0.0054 µM.
On to `Cc1cnc(C(=O)Nc2ccc(CC[C@H]3COC(N)=N3)cc2)cn1` [Example 129, (S)-N-(4-(2-(2-Amino-4,5-dihydrooxazol-4-yl)ethyl)phenyl)-5-methylpyrazine-2-carboxamide], for which the Ki on mouse TAAR1 came to 0.0039 µM; on rat TAAR1, 0.0033 µM.
As to `NC1=N[C@@H](CCc2ccc(C(=O)Nc3ccc(Cl)cn3)cc2)CO1` [Example 131, (S)-4-(2-(2-Amino-4,5-dihydrooxazol-4-yl)ethyl)-N-(5-chloropyridin-2-yl)benzamide], the Ki was 0.004 µM on mouse TAAR1 and 0.0008 µM at rat TAAR1.
For the compound `NC1=N[C@@H](CCc2ccc(NC(=O)c3ccc(Cl)cc3F)cc2)CO1` [Example 136, (S)-N-(4-(2-(2-Amino-4,5-dihydrooxazol-4-yl)ethyl)phenyl)-4-chloro-2-fluorobenzamide], the figures for the Ki at mouse TAAR1 and on rat TAAR1 were 0.0003 µM and 0.0006 µM, respectively.
`NC1=N[C@@H](CCc2ccc(NC(=O)c3ccc(Cl)cc3Cl)cc2)CO1` [Example 137, (S)-N-(4-(2-(2-Amino-4,5-dihydrooxazol-4-yl)ethyl)phenyl)-2,4-dichlorobenzamide]: the values for the Ki at mouse TAAR1 and on rat TAAR1 were 0.0003 µM and 0.0006 µM, respectively.
In the same order, the values of `COc1cc(Cl)ccc1C(=O)Nc1ccc(CC[C@H]2COC(N)=N2)cc1` [Example 138, (S)-N-(4-(2-(2-Amino-4,5-dihydrooxazol-4-yl)ethyl)phenyl)-4-chloro-2-methoxybenzamide] are 0.0002 µM and 0.0002 µM.
`N#Cc1ccc(NC(=O)c2ccc(CC[C@H]3COC(N)=N3)cc2)cc1` [Example 142, (S)-4-(2-(2-Amino-4,5-dihydrooxazol-4-yl)ethyl)-N-(4-cyanophenyl)benzamide]: the Ki at mouse TAAR1 stood at 0.0044 µM; on rat TAAR1, 0.0011 µM.
On to `C#Cc1ccc(NC(=O)c2ccc(CC[C@H]3COC(N)=N3)cc2)cc1` [Example 145, (S)-4-(2-(2-amino-4,5-dihydrooxazol-4-yl)ethyl)-N-(4-ethynylphenyl)benzamide], for which the Ki on mouse TAAR1 was 0.0018 µM; at rat TAAR1, 0.0001 µM.
Turning to `NC1=N[C@@H](CCc2ccc(NC(=O)OCc3ccc(Cl)cc3)cc2)CO1` [Example 146, {4-[2-((S)-2-Amino-4,5-dihydro-oxazol-4-yl)-ethyl]-phenyl}-carbamic acid 4-chloro-benzyl ester], the results for the Ki on mouse TAAR1 and at rat TAAR1 were 0.0001 µM and 0.0003 µM, respectively.
Turning to `COc1ccc(OC(=O)Nc2ccc(CC[C@H]3COC(N)=N3)cc2)cc1` [Example 147, {4-[2-((S)-2-Amino-4,5-dihydro-oxazol-4-yl)-ethyl]-phenyl}-carbamic acid 4-methoxy-phenyl ester], the results for the Ki at mouse TAAR1 and at rat TAAR1 were 0.0006 µM and 0.0003 µM, respectively.
Regarding `NC1=N[C@@H](CCc2ccc(NC(=O)Oc3ccc(F)cc3)cc2)CO1` [Example 148, {4-[2-((S)-2-Amino-4,5-dihydro-oxazol-4-yl)-ethyl]-phenyl}-carbamic acid 4-fluoro-phenyl ester], the Ki at mouse TAAR1 is 0.0005 µM; on rat TAAR1, 0.0006 µM.
In the same order, the values of `NC1=N[C@@H](CCc2ccc(NC(=O)Oc3cccc(C(F)(F)F)c3)cc2)CO1` [Example 149, {4-[2-((S)-2-Amino-4,5-dihydro-oxazol-4-yl)-ethyl]-phenyl}-carbamic acid 3-trifluoromethyl-phenyl ester] are 0.0097 µM and 0.0092 µM.
`NC1=N[C@@H](C[C@@H](Oc2ccc(NC(=O)c3ccc(Cl)cc3)cc2)C(F)(F)F)CO1` [Example 150, N-{4-[(R)-1-((S)-2-Amino-4,5-dihydro-oxazol-4-ylmethyl)-2,2,2-trifluoro-ethoxy]-phenyl}-4-chloro-benzamide]: the Ki at mouse TAAR1 was found to be 0.0004 µM; on rat TAAR1, 0.0005 µM.
In the case of `NC1=N[C@@H](CCc2ccc(NC(=O)Nc3ncc(Cl)cn3)cc2)CO1` [Example 151, 1-{4-[2-((S)-2-Amino-4,5-dihydro-oxazol-4-yl)-ethyl]-phenyl}-3-(5-chloro-pyrimidin-2-yl)-urea], the values for the Ki on mouse TAAR1 and at rat TAAR1 were 0.0071 µM and 0.0028 µM, respectively.
On to `C#Cc1ccc(NC(=O)c2ccc(CC[C@H]3COC(N)=N3)cc2)nc1` [Example 152, (S)-4-(2-(2-Amino-4,5-dihydrooxazol-4-yl)ethyl)-N-(5-ethynylpyridine-2-yl)benzamide], for which the Ki on mouse TAAR1 came out at 0.008 µM; at rat TAAR1, 0.0002 µM.
For `CCOc1ccc(C(=O)Nc2ccc(CC[C@H]3COC(N)=N3)cc2)nc1` [Example 153, (S)-N-(4-(2-(2-Amino-4,5-dihydrooxazol-4-yl)ethyl)phenyl)-5-ethoxypicolinamide], the Ki on mouse TAAR1 came out at 0.0009 µM; on rat TAAR1, 0.001 µM.
Regarding `Cc1cc(C(=O)Nc2ccc(CC[C@H]3COC(N)=N3)cc2)ncc1Cl` [Example 155, (S)-N-(4-(2-(2-Amino-4,5-dihydrooxazol-4-yl)ethyl)phenyl)-5-chloro-4-methylpicolinamide], the Ki at mouse TAAR1 amounted to 0.0004 µM; at rat TAAR1 it was 0.0006 µM.
Take `Cc1cc(Cl)cc(C(=O)Nc2ccc(CC[C@H]3COC(N)=N3)cc2)n1` [Example 156, (S)-N-(4-(2-(2-Amino-4,5-dihydrooxazol-4-yl)ethyl)phenyl)-4-chloro-6-methylpicolinamide]: the results for the Ki at mouse TAAR1 and at rat TAAR1 were 0.0006 µM and 0.0063 µM, respectively.
As for `Cc1cc(C)nc(C(=O)Nc2ccc(CC[C@H]3COC(N)=N3)cc2)c1` [Example 157, (S)-N-(4-(2-(2-Amino-4,5-dihydrooxazol-4-yl)ethyl)phenyl)-4,6-dimethylpicolinamide], the Ki at mouse TAAR1 is 0.0019 µM; at rat TAAR1, 0.0006 µM.
In the same order, the values of `NC1=N[C@@H](CCc2ccc(NC(=O)c3cc(Cl)cc(Cl)n3)cc2)CO1` [Example 158, (S)-N-(4-(2-(2-Amino-4,5-dihydrooxazol-4-yl)ethyl)phenyl)-4,6-dichloropicolinamide] are 0.0006 µM and 0.0006 µM.
`NC1=N[C@@H](CCc2ccc(NC(=O)c3cnc(C(F)(F)F)cn3)cc2)CO1` [Example 159, (S)-N-(4-(2-(2-Amino-4,5-dihydrooxazol-4-yl)ethyl)phenyl)-5-(trifluoromethyl)pyrazine-2-carboxamide]: the Ki at mouse TAAR1 stood at 0.001 µM; at rat TAAR1, 0.0024 µM.
Turning to `NC1=N[C@@H](CCc2ccc(NC(=O)c3cncc(Cl)n3)cc2)CO1` [Example 160, (S)-N-(4-(2-(2-Amino-4,5-dihydrooxazol-4-yl)ethyl)phenyl)-6-chloropyrazine-2-carboxamide], the figures for the Ki on mouse TAAR1 and on rat TAAR1 were 0.0047 µM and 0.0018 µM, respectively.
On the same counts, the results for `CCOc1cnc(C(=O)Nc2ccc(CC[C@H]3COC(N)=N3)cc2)cn1` [Example 161, (S)-N-(4-(2-(2-Amino-4,5-dihydrooxazol-4-yl)ethyl)phenyl)-5-ethoxypyrazine-2-carboxamide] are 0.001 µM and 0.0012 µM.
On the same counts, the results for `NC1=N[C@@H](CCc2ccc(NC(=O)c3cnc(N4CCC(F)(F)CC4)cn3)cc2)CO1` [Example 164] are 0.0018 µM and 0.0027 µM.
Turning to `COc1ccc(C(=O)Nc2ccc(CC[C@H]3COC(N)=N3)cc2)nc1Cl` [Example 168, (S)-N-(4-(2-(2-Amino-4,5-dihydrooxazol-4-yl)ethyl)phenyl)-6-chloro-5-methoxypicolinamide], the Ki on mouse TAAR1 was 0.0014 µM; on rat TAAR1, 0.0009 µM.
On the same counts, the results for `NC1=N[C@@H](CCc2ccc(NC(=O)c3ccc(Cl)s3)cc2)CO1` [Example 169, (S)-N-(4-(2-(2-Amino-4,5-dihydrooxazol-4-yl)ethyl)phenyl)-5-chlorothiophene-2-carboxamide] are 0.0005 µM and 0.0001 µM.
Turning to `NC1=N[C@@H](CCc2ccc(NC(=O)CCC3CC3)cc2)CO1` [Example 170, (S)-N-(4-(2-(2-Amino-4,5-dihydrooxazol-4-yl)ethyl)phenyl)-3-cyclopropylpropanamide], the Ki on mouse TAAR1 stood at 0.0074 µM; on rat TAAR1 it was 0.0018 µM.
`Cc1ccc(C(=O)Nc2ccc(CC[C@H]3COC(N)=N3)cc2)nc1` [Example 171, (S)-N-(4-(2-(2-Amino-4,5-dihydrooxazol-4-yl)ethyl)phenyl)-5-methylpicolinamide]: the Ki at mouse TAAR1 was found to be 0.0008 µM; at rat TAAR1, 0.0011 µM.
In the same order, the values of `Cc1cc(C(=O)Nc2ccc(CC[C@H]3COC(N)=N3)cc2)ccn1` [Example 172, (S)-N-(4-(2-(2-Amino-4,5-dihydrooxazol-4-yl)ethyl)phenyl)-2-methylisonicotinamide] are 0.0084 µM and 0.0019 µM.
As for `NC1=N[C@@H](CCc2ccc(NC(=O)c3ccnc(Cl)c3)cc2)CO1` [Example 173, (S)-N-(4-(2-(2-Amino-4,5-dihydrooxazol-4-yl)ethyl)phenyl)-2-chloroisonicotinamide], the Ki at mouse TAAR1 and at rat TAAR1 was 0.0014 µM throughout.
Turning to `NC1=N[C@@H](CCc2ccc(NC(=O)c3ccnc(Cl)c3F)cc2)CO1` [Example 174, (S)-N-(4-(2-(2-Amino-4,5-dihydrooxazol-4-yl)ethyl)phenyl)-2-chloro-3-fluoroisonicotinamide], the Ki is 0.0035 µM on mouse TAAR1 and 0.0016 µM on rat TAAR1.
